The target of experiment [1] is T1, 5-hydroxytryptamine receptor 1A (Rattus norvegicus, UniProt P19327).
T1 sequence (P19327 whole entry): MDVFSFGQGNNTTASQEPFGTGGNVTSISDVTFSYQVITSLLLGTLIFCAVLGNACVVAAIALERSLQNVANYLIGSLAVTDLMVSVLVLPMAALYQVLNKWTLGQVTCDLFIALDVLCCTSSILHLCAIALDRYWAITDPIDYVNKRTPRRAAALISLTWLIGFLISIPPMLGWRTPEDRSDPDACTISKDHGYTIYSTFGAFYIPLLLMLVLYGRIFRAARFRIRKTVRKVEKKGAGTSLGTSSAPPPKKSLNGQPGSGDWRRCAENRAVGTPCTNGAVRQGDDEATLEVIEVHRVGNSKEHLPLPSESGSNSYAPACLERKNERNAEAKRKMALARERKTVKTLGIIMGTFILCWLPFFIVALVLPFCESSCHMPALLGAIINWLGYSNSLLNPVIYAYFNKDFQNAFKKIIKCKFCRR
As to the kind of experiment: Binding affinity against 5-hydroxytryptamine 1A (5-HT1A) receptor in rat hippocampus membranes. The experiment is classed as cell membranes, Membrane.

The target in experiment [2] is D(2) dopamine receptor (Bos taurus, UniProt P20288). As to the kind of experiment: Binding affinity against D2 receptor in calf caudate nucleus.
Sequence of D(2) dopamine receptor (P20288 whole entry): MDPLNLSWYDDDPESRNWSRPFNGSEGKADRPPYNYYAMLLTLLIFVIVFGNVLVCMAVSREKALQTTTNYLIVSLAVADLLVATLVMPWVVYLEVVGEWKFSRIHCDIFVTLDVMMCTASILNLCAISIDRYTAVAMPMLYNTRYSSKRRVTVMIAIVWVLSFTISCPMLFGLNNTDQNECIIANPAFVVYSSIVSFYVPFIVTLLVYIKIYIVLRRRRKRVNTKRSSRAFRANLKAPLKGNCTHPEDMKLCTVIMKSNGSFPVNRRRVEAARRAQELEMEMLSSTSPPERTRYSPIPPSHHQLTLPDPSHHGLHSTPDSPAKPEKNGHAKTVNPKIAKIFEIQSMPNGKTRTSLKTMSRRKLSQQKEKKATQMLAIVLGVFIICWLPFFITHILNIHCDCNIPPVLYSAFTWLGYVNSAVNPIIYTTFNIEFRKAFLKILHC
Experiment [3] has as its target 5-hydroxytryptamine receptor 2A (Bos taurus, UniProt Q75Z89). As to the kind of experiment: Binding affinity towards 5-hydroxytryptamine 2 receptor in calf frontal cortex. In kind it is tissue-based.
For experiment [4], the target named is T2, Alpha-2A adrenergic receptor (Bos taurus, UniProt Q28838).
T2 sequence (Q28838 whole entry): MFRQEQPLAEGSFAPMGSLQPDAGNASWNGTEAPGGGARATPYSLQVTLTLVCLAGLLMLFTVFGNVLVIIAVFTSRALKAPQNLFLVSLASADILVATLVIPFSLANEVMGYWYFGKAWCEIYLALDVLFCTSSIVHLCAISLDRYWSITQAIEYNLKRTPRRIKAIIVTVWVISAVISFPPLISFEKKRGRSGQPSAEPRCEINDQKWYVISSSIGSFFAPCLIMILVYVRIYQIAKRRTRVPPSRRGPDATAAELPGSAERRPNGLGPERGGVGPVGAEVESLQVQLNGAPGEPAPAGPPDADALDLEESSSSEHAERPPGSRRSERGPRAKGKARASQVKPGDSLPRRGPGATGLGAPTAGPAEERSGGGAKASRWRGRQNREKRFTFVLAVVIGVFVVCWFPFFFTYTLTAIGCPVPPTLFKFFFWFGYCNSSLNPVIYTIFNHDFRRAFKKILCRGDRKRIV
As to the kind of experiment: Binding affinity against alpha-2 adrenergic receptor in calf frontal cortex. In kind it is tissue-based.

The target in experiment [5] is T3, Alpha-1A adrenergic receptor (Bos taurus, UniProt P18130).
T3 sequence (P18130 whole entry): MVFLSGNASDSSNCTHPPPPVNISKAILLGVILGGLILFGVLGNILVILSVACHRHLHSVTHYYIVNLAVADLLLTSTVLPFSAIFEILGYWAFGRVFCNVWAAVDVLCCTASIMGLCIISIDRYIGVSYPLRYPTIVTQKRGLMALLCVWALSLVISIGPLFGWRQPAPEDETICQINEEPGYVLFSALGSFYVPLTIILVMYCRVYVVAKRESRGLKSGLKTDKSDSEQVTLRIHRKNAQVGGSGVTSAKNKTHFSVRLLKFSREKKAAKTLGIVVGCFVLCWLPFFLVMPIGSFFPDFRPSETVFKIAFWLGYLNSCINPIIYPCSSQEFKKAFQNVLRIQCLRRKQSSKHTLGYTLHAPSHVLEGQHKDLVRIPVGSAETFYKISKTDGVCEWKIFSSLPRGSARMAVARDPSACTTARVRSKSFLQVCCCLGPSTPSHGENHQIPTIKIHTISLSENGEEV
As to the kind of experiment: Binding affinity against alpha-1 adrenergic receptor in calf frontal cortex. In kind it is tissue-based.

The target in experiment [6] is 5-hydroxytryptamine receptor 1B (Rattus norvegicus, UniProt P28564). As to the kind of experiment: Binding affinity for 5-hydroxytryptamine 1B receptor in rat cortex, striatum and globus pallidus. The experiment is classed as tissue-based.
Sequence of 5-hydroxytryptamine receptor 1B (P28564 whole entry): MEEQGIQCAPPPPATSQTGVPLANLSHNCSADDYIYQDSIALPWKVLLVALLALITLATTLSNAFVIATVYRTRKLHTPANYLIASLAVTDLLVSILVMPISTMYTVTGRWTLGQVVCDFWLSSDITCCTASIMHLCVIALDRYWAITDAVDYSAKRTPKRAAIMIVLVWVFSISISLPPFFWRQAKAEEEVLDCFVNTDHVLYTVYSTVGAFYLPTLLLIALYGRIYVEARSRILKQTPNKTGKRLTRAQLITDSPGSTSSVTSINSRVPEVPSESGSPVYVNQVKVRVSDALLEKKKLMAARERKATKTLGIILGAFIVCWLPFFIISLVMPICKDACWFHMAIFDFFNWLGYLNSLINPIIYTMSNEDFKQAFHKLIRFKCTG
For experiment [7], the target named is D(1A) dopamine receptor (Bos taurus, UniProt Q95136). As to the kind of experiment: Binding affinity towards dopamine receptor D1 in calf striatum. In kind it is tissue-based.
Sequence of D(1A) dopamine receptor (Q95136 whole entry): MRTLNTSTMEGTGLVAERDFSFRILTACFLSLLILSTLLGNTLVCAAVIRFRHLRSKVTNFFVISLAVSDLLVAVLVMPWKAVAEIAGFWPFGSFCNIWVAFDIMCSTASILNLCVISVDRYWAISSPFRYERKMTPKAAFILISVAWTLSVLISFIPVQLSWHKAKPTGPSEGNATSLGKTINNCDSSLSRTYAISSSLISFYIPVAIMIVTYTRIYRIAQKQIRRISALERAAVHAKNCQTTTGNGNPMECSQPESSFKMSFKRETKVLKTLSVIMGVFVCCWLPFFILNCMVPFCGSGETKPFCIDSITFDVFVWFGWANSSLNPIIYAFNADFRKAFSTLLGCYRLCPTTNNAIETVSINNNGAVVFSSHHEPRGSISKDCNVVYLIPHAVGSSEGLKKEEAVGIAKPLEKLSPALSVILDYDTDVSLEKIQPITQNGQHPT

Sequence of 5-hydroxytryptamine receptor 2A (Q75Z89 whole entry): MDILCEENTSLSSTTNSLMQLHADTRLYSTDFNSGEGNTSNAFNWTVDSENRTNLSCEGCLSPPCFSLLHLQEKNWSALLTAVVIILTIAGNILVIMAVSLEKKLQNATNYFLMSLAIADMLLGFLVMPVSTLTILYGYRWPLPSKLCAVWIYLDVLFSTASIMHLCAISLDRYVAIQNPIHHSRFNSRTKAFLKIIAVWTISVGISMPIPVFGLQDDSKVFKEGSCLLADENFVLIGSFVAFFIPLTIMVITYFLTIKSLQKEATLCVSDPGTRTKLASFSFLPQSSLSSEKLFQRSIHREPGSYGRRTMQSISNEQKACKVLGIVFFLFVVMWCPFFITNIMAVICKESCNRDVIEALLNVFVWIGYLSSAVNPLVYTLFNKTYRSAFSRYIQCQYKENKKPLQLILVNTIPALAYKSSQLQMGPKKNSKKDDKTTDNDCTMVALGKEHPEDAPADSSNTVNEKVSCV

`CCCN(CCCCN1CCOCC1)C1COc2cccc(OC)c2C1` (stereo unspecified): the 50% inhibitory concentration (IC50) was 0.008 µM in experiment [1]; 0.03 µM in experiment [2]; 10 µM in experiment [3]; 4 µM in experiment [4]; 10 µM in experiment [5]; greater than 1000 µM in experiment [6]. Moreover, in experiment [7], the IC50 was 100 µM.
In the case of `COc1cccc2c1CC(NCCCCN1C(=O)c3ccccc3C1=O)CO2` (stereo unspecified), the IC50 in experiment [1] was 0.09 µM; in experiment [2], 5 µM; in experiment [3], 0.6 µM; in experiment [4] it was 4 µM; in experiment [5] it was 1000 µM; in experiment [6], 7 µM. The compound further displayed an IC50 in experiment [7] of 30 µM.
For `CCCN(CCCCNC(=O)c1ccc(F)cc1)C1COc2cccc(OC)c2C1` (stereo unspecified), the IC50 in experiment [1] stood at 0.0004 µM; in experiment [2] it was 0.007 µM; in experiment [3], 3 µM; in experiment [4], 4 µM; in experiment [5], 2 µM; in experiment [6], 3 µM. For the same compound, in experiment [7], the IC50 is 20 µM.
In the case of `CCCN(CCCCN1CC2CCCC2C1=O)C1COc2cccc(OC)c2C1` (stereo unspecified), the concentration for half-maximal inhibition (IC50) came to 0.001 µM in experiment [1]; 0.003 µM in experiment [2]; 2 µM in experiment [3]; 4 µM in experiment [4]; 5 µM in experiment [5]; 30 µM in experiment [6]. Also, the IC50 in experiment [7] was 60 µM.
As to `CCCN(CCCCN1CCCCC1)C1COc2cccc(OC)c2C1` (stereo unspecified), the IC50 in experiment [1] is 0.002 µM; in experiment [2], 0.02 µM; in experiment [3], greater than 1000 µM; in experiment [4], 10 µM; in experiment [5], 5 µM; in experiment [6], 50 µM. In experiment [7], this compound showed an IC50 of 100 µM.
Consider `CCCN(CCCCCN1C(=O)CC2(CCCC2)CC1=O)C1COc2cccc(OC)c2C1` (stereo unspecified), for which the IC50 in experiment [1] came to 0.001 µM; in experiment [2], 60 µM; in experiment [3] it was 3 µM; in experiment [4] it was 0.1 µM; in experiment [5], 5 µM; in experiment [6], 20 µM. In experiment [7], this compound came in with a concentration for half-maximal inhibition (IC50) of 60 µM.
Consider `CCCN(CCCCNC(=O)c1ccccc1OC)C1COc2cccc(OC)c2C1` (stereo unspecified), for which the IC50 in experiment [1] amounted to 0.001 µM; in experiment [2] it was 0.01 µM; in experiment [3] it was 4 µM; in experiment [4] it was 0.1 µM; in experiment [5], 3 µM; in experiment [6] it was 1 µM.
With `CCCN(CCCN1C(=O)CC2(CCCC2)CC1=O)C1COc2cccc(OC)c2C1` (stereo unspecified), the IC50 in experiment [1] was determined as 0.001 µM; in experiment [2], 0.6 µM; in experiment [3], 0.8 µM; in experiment [4], 6 µM; in experiment [5], 8 µM; in experiment [6] it was 20 µM. For the same compound, the IC50 in experiment [7] came to 10 µM.
In the case of `CCCN(CCCON1C(=O)CC2(CCCC2)CC1=O)C1COc2cccc(OC)c2C1` (stereo unspecified), the IC50 was 0.001 µM in experiment [1]; 0.02 µM in experiment [2]; 4 µM in experiment [3]; 2 µM in experiment [4]; 9 µM in experiment [5]; 40 µM in experiment [6]. The IC50 in experiment [7] stood at 20 µM.
On to `CCCN(CCN1C(=O)CC2(CCCC2)CC1=O)C1COc2cccc(OC)c2C1` (stereo unspecified), for which the IC50 in experiment [1] was 0.03 µM; in experiment [2] it was 3 µM; in experiment [3] it was greater than 1000 µM; in experiment [4] it was greater than 1000 µM; in experiment [5], greater than 1000 µM; in experiment [6], greater than 1000 µM. Also, the IC50 in experiment [7] was greater than 1000 µM.
As to `CCCN(CCCCN1C(=O)CC2(CCCC2)CC1=O)C1COc2ccccc2C1` (stereo unspecified), the IC50 in experiment [1] was 0.002 µM; in experiment [2], 0.004 µM; in experiment [3], 2 µM; in experiment [4] it was 10 µM; in experiment [5] it was 7 µM; in experiment [6], 30 µM. Besides, the IC50 in experiment [7] was determined as 40 µM.
`CCCN(CCCCN1C(=O)c2ccccc2S1(=O)=O)C1COc2cccc(OC)c2C1` (stereo unspecified): the IC50 in experiment [1] is 0.001 µM; in experiment [2], 0.09 µM; in experiment [3], 10 µM; in experiment [4] it was 40 µM; in experiment [5] it was 1 µM; in experiment [6], 1 µM. Besides, in experiment [7], the IC50 came to 50 µM.
Consider `CCC[N+](C)(CCCCN1C(=O)CC2(CCCC2)CC1=O)C1COc2cccc(OC)c2C1` (stereo unspecified), for which the IC50 in experiment [1] was 0.3 µM; in experiment [2] it was 1 µM; in experiment [3] it was greater than 1000 µM; in experiment [4], 1000 µM; in experiment [5] it was 70 µM; in experiment [6], greater than 1000 µM. In experiment [7], the half-inhibitory concentration (IC50) worked out at 100 µM.
`CCCN(CCCCN1C(=O)c2ccccc2C1=O)C1COc2cccc(OC)c2C1` (stereo unspecified): the IC50 turned out to be 0.05 µM in experiment [1]; 0.03 µM in experiment [2]; 30 µM in experiment [3]; 2 µM in experiment [4]; 5 µM in experiment [5]; 0.4 µM in experiment [6]. Further, the IC50 in experiment [7] was found to be 40 µM.
Turning to `CCCN(CCC)C1COc2ccc3ccccc3c2C1` (stereo unspecified), the IC50 in experiment [1] was 20 µM; in experiment [2], 0.1 µM; in experiment [3] it was 10 µM; in experiment [4], 10 µM; in experiment [5] it was 2 µM; in experiment [6] it was 30 µM. For the same compound, the IC50 in experiment [7] turned out to be 40 µM.
Consider `CCCN(CCCCN1C(=O)CC(C)(C)CC1=O)C1COc2cccc(OC)c2C1` (stereo unspecified), for which the IC50 in experiment [1] is 0.004 µM; in experiment [2], 0.04 µM; in experiment [3], 6 µM; in experiment [4], 0.4 µM; in experiment [5], 6 µM; in experiment [6], 10 µM. The compound further yielded an IC50 in experiment [7] of 80 µM.
Take `COc1cccc2c1CC(NCCCCN1C(=O)CC3(CCCC3)CC1=O)CO2` (stereo unspecified): the IC50 is 0.02 µM in experiment [1]; 0.9 µM in experiment [2]; 1 µM in experiment [3]; 20 µM in experiment [4]; 10 µM in experiment [5]; 20 µM in experiment [6]. The IC50 in experiment [7] came out at 20 µM.
For `CCCN(CCCN1C(=O)c2ccccc2C1=O)C1COc2cccc(OC)c2C1` (stereo unspecified), the IC50 in experiment [1] was found to be 0.1 µM; in experiment [2], 0.08 µM; in experiment [3], 8 µM; in experiment [4], 1 µM; in experiment [5] it was 4 µM; in experiment [6], 3 µM. Besides, the IC50 in experiment [7] was determined as 40 µM.
As to `CCCN(CCCNS(=O)(=O)c1ccc(C)cc1)C1COc2cccc(OC)c2C1` (stereo unspecified), the IC50 in experiment [1] turned out to be 0.003 µM; in experiment [2], 0.03 µM; in experiment [3] it was 6 µM; in experiment [4] it was 0.5 µM; in experiment [5], 3 µM; in experiment [6], 2 µM. For the same compound, in experiment [7], the IC50 turned out to be 20 µM.
Regarding `CCCN(CCN1C(=O)c2ccccc2C1=O)C1COc2cccc(OC)c2C1` (stereo unspecified), the IC50 in experiment [1] is 0.8 µM; in experiment [2], 10 µM; in experiment [3], greater than 100 µM; in experiment [4], greater than 1000 µM; in experiment [5], greater than 1000 µM; in experiment [6], greater than 1000 µM. In addition, the IC50 in experiment [7] is greater than 1000 µM.
On to `CCCN(CCCCn1c(=O)oc2cccnc21)C1COc2cccc(OC)c2C1` (stereo unspecified), for which the IC50 in experiment [1] is 0.005 µM; in experiment [2], 0.1 µM; in experiment [3] it was 6 µM; in experiment [4] it was 5 µM; in experiment [5] it was 3 µM; in experiment [6] it was 1 µM. In addition, in experiment [7], the IC50 was determined as 30 µM.
Turning to `O=C1CC2(CCCC2)CC(=O)N1CCCCN1CCN(c2ncccn2)CC1` [BUSPIRONE], the IC50 in experiment [2] worked out at 4 µM; in experiment [3], 10 µM; in experiment [4], 10 µM; in experiment [5], 16 µM; in experiment [7], 27 µM.

The term IC50 denotes the concentration needed to halve the response being measured. A low value points to higher potency.

Source of the values: ChEMBL document CHEMBL1127541, “3,4-Dihydro-3-amino-2H-1-benzopyran derivatives as 5-HT1A receptor ligands and potential anxiolytic agents. 1. Synthesis and structure--activity relationship studies” (J Med Chem, 1994).
